# ChEMBL document CHEMBL6127035, “Novel pyridazinone derivatives bind to KSRP: Synthesis, anti-tumor biological evaluations and modelling insights” (Eur J Med Chem, 2024)
# pIC50: −log10 of the molar value. Calls of active or inactive are those of the source. The calls are words filed in the database; no cut-off is given here.
# Experiments:
# [1] = system: 4T1; assay: Antiproliferative activity against mouse 4T1 cells assessed as reduction in cell viability incubated for 2 days by MTT assay; assay type: functional, cell-based; details: 4T1, 48 h
# [2] = system: MIA PaCa-2; assay: Antiproliferative activity against human MIA PaCa-2 cells assessed as reduction in cell viability incubated for 2 days by MTT assay; assay type: functional, cell-based; details: MIA PaCa-2, 48 h
# [3] = system: MCF7; assay: Induction of apoptosis in human MCF7 cells assessed as late apoptotic cells at 1.25 uM incubated for 48 hrs by Annexin V-FITC/PI staining based flow cytometric analysis (reference value: 5.31 %); assay type: functional
# [4] = system: MCF7; assay: Antitumor activity against human MCF7 cells xenografted in BALB/C-nu/nu mouse model assessed as decrease in tumor volume at 30 mg/kg, iv administered every other day for 15 days relative to control; assay type: functional; design: scale not given: the % may be the effect or the level left; details: time 15 day
# [5] = system: MDA-MB-231; assay: Inhibition of colony formation in human MDA-MB-231 cells assessed as reduction in colony count incubated for 2 weeks by crystal violet staining based analysis; assay type: functional, cell-based
# [6] = Toxicity in BALB/C-nu/nu mouse xenografted with human MCF7 cells assessed as histopathological lesions in spleen at 20 to 30 mg/kg, iv administered every other day for 15 days by H and E staining based analysis; assay type: organism-based; details: in vivo, 360 h, dose 20-30 mg/kg, time 15 day
# [7] = Acute toxicity in ip dosed BALB/c nu/nu mouse assessed as lethal dose measured after 7 days; assay type: organism-based; details: in vivo, time 7 day
# [8] = system: Mitochondrial membrane; assay: Induction of mitochondrial membrane potential loss in human MCF7 cells assessed as increase in green fluorescence at 10 uM incubated for 24 hrs by JC-1 staining based automated microscopic immunofluorescence analysis; assay type: cell membranes
# [9] = system: U-87 MG; assay: Antiproliferative activity against human U-87 MG cells assessed as reduction in cell viability incubated for 2 days by MTT assay; assay type: functional, cell-based, U-87MG ATCC; details: 48 h
# [10] = system: MCF7; assay: Induction of cell cycle arrest in human MCF7 cells assessed as decrease in G0/G1 phase cells at 5 uM incubated for 24 hrs by PI staining based flow cytometric analysis; assay type: functional
# [11] = system: MDA-MB-231; assay: Inhibition of cell migration in human MDA-MB-231 cells assessed as reduction in wound healing index measured after 72 hrs by scratch assay; assay type: functional, cell-based
# [12] = system: MCF7; assay: Induction of apoptosis in human MCF7 cells assessed as early apoptotic cells at 1.25 uM incubated for 48 hrs by Annexin V-FITC/PI staining based flow cytometric analysis (reference value: 6.33 %); assay type: functional
# [13] = Acute toxicity in BALB/c nu/nu mouse assessed as survival rate at 110 mg/kg, ip administered for 7 days relative to control; assay type: organism-based; details: in vivo, time 7 day
# [14] = Acute toxicity in BALB/c nu/nu mouse assessed as survival rate at 90 mg/kg, ip administered for 7 days relative to control; assay type: organism-based; details: in vivo, time 7 day
# [15] = target: T1, Far upstream element-binding protein 2 (Homo sapiens) (UniProt Q92945); assay: Binding affinity to recombinant full-length KSRP (unknown origin) by SPR analysis
# T1 sequence (whole entry): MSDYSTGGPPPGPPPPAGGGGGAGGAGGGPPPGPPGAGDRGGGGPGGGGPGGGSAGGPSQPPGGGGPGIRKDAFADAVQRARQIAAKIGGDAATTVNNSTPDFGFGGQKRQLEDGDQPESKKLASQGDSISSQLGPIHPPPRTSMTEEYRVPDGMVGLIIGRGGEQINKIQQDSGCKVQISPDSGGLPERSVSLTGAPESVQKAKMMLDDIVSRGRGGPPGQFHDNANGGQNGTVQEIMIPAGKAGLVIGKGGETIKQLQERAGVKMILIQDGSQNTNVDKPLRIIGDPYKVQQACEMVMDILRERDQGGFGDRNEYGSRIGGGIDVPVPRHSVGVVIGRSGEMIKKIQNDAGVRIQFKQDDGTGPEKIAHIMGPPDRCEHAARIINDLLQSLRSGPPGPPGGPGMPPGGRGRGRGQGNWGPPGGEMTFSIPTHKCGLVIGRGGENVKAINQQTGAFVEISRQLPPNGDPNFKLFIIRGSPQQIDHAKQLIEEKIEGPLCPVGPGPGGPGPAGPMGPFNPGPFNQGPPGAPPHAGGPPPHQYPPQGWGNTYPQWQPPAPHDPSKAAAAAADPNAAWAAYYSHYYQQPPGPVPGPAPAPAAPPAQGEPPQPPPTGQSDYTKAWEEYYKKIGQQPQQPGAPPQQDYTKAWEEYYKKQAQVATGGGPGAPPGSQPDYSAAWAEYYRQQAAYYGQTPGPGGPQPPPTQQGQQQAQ
# [16] = system: HCT-116; assay: Antiproliferative activity against human HCT-116 cells assessed as reduction in cell viability incubated for 2 days by MTT assay; assay type: functional, cell-based; details: HCT-116, 48 h
# [17] = system: MCF7; assay: Induction of ROS accumulation in human MCF7 cells assessed as increase in green fluorescence at 5 uM incubated for 24 hrs by DCFH-DA staining based automated microscopic immunofluorescence analysis; assay type: functional, cell-based
# [18] = system: MCF7; assay: Induction of apoptosis in human MCF7 cells assessed as necrotic cells at 1.25 uM incubated for 48 hrs by Annexin V-FITC/PI staining based flow cytometric analysis (reference value: 1.16 %); assay type: functional
# [19] = Toxicity in BALB/C-nu/nu mouse xenografted with human MCF7 cells assessed as histopathological lesions in lung at 20 to 30 mg/kg, iv administered every other day for 15 days by H and E staining based analysis; assay type: organism-based; details: in vivo, 360 h, dose 20-30 mg/kg, time 15 day
# [20] = system: MCF7; assay: Induction of DNA double-strand breaks in human MCF7 cells assessed as appearance of nuclear fragments at 10 uM incubated for 24 hrs by Hoechst 33342 staining based fluorescence microscopic analysis; assay type: functional, cell-based
# [21] = system: MCF7; assay: Induction of DNA double-strand breaks in human MCF7 cells assessed as increase in gamma-H2AX foci formation at 10 uM incubated for 24 hrs by […] fluorescence microscopic analysis; assay type: functional, cell-based
# [22] = Toxicity in BALB/C-nu/nu mouse xenografted with human MCF7 cells assessed as histopathological lesions in kidney at 20 to 30 mg/kg, iv administered every other day for 15 days by H and E staining based analysis; assay type: organism-based; details: in vivo, 360 h, dose 20-30 mg/kg, time 15 day
# [23] = system: MCF7; assay: Antitumor activity against human MCF7 cells xenografted in BALB/C-nu/nu mouse model assessed as increase in gamma-H2AX expression at 20 to 30 mg/kg, iv administered every other day for 15 days by immunohistochemical analysis; assay type: functional, organism-based; details: dose 20-30 mg/kg, time 15.0 day
# [24] = system: MCF7; assay: Induction of apoptosis in human MCF7 cells assessed as early apoptotic cells at 0.62 uM incubated for 48 hrs by Annexin V-FITC/PI staining based flow cytometric analysis (reference value: 6.33 %); assay type: functional
# [25] = system: MDA-MB-231; assay: Antiproliferative activity against human MDA-MB-231 cells assessed as reduction in cell viability incubated for 2 days by MTT assay; assay type: functional, cell-based; details: MDA-MB-231, 48 h
# [26] = system: MCF7; assay: Induction of apoptosis in human MCF7 cells assessed as necrotic cells at 0.62 uM incubated for 48 hrs by Annexin V-FITC/PI staining based flow cytometric analysis (reference value: 1.16 %); assay type: functional
# [27] = system: MCF7; assay: Antiproliferative activity against human MCF7 cells assessed as reduction in cell viability incubated for 2 days by MTT assay; assay type: functional, cell-based; details: MCF7, 48 h
# [28] = system: KB; assay: Antiproliferative activity against human KB cells assessed as reduction in cell viability incubated for 2 days by MTT assay; assay type: functional, cell-based; details: 48 h
smiles,measurement,setting,value
CN(CCO)S(=O)(=O)c1ccc(-n2ncc(Cl)c(Cl)c2=O)cc1,pIC50,[1],5.91
same,pIC50,[2],6.44
same,Activity,[3],13.5%
same,Activity,[4],61.6%
same,inhibition,[5],Active
same,Activity,[6],Non-Toxic
same,LD50 at 168 h,[7],105 mg/kg
same,Activity,[8],Active
same,pIC50,[9],6.40
same,Activity,[10],Active
same,inhibition,[11],Active
same,Activity,[12],10.2%
same,survival at 168 h,[13],20%
same,survival at 168 h,[14],100%
same,Activity,[15],Dose-Dependent Effect
same,pIC50,[16],6.11
same,Activity,[17],Active
same,Activity,[18],1.26%
same,Activity,[19],Non-Toxic
same,Activity,[20],Active
same,Activity,[21],Active
same,Activity,[22],Non-Toxic
same,Activity,[23],Active
same,Activity,[24],7.62%
same,pIC50,[25],5.08
same,Activity,[26],1.3%
same,pIC50,[27],5.51
same,pIC50,[28],6.42
